Patent US9662327B2 (AGIOS PHARMACEUTICALS, INC, priority 2011, dated 2017)

These compounds were tested against IDH1 R132H (Homo sapiens (Human), UniProt O75874, R132H) (assay: Assays for IDH1 R132H Inhibitors (NADPH/aKG, resazurin detection)). Conditions: IDH1 R132H enzyme, Table 2; read-out: IDHR132H Activity.
Assay type: biochemical
In short: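 Substrate mix held 8 uM NADPH plus 2 mM aKG; buffer was 20 mM Tris pH 7.5 with 150 mM NaCl, 10 mM MgCl2, 0.03% BSA. After 50 min room-temperature reaction, NADPH remaining was detected with 30 μM resazurin mix over 5 min.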

Sequence of IDH1 R132H (O75874 whole entry R132H): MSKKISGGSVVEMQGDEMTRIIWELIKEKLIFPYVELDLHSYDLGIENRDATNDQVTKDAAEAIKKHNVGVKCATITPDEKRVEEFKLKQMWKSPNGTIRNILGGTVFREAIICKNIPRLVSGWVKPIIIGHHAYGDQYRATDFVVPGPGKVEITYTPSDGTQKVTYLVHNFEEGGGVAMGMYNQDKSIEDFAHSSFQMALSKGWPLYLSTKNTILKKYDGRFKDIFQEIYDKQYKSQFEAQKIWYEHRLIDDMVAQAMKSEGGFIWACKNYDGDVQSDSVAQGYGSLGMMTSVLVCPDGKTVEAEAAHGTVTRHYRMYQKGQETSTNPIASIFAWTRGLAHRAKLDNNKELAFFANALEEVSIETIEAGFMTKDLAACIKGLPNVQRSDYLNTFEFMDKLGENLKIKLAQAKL

Compound | IC50
C=CCNC(=O)N1CCN(c2nc(C3CCCCC3)c3c(c2C#N)CCOC3)CC1C(=O)OCC (stereo not shown) [Compound 330, ethyl 1-(allylcarbamoyl)-4-(5-cyano-8-cyclohexyl-3,4-dihydro-1H-pyrano[3,4-c]pyridin-6-yl)-piperazine-2-carboxylate] | 1000 to 10000 nM
C=CCNC(=O)N1CCN(c2nc(C(C)C)c3c(c2C#N)CC(C)(C)OC3)CC1C(=O)OCC (stereo not shown) [Compound 331, ethyl 1-(allylcarbamoyl)-4-(5-cyano-8-isopropyl-3,3-dimethyl-3,4-dihydro-1H-pyrano[3,4-c]pyridin-6-yl)piperazine-2-carboxylate] | 1000 to 10000 nM
CCOC(=O)C1CN(c2nc(C(C)C)c3c(c2C#N)CC(C)(C)OC3)CCN1C(=O)Cc1cccs1 (stereo not shown) [Compound 332, ethyl 4-(5-cyano-8-isopropyl-3,3-dimethyl-3,4-dihydro-1H-pyrano[3,4-c]pyridin-6-yl)-1-(2-(thiophen-2-yl)acetyl)piperazine-2-carboxylate] | 500 to 1000 nM
C=CCNC(=O)N1CCN(c2nc(C3CCCCC3)c3c(c2C#N)CCOC3)C[C@H]1C [Compound 334, (R)—N-allyl-4-(5-cyano-8-cyclohexyl-3,4-dihydro-1H-pyrano[3,4-c]pyridin-6-yl)-2-methylpiperazine-1-carboxamide] | 1000 to 10000 nM
CCNC(=O)N1CCN(c2nc(C3CCCCC3)c3c(c2C#N)CCOC3)C[C@H]1C [Compound 335, (R)-4-(5-cyano-8-cyclohexyl-3,4-dihydro-1H-pyrano[3,4-c]pyridin-6-yl)-N-ethyl-2-methylpiperazine-1-carboxamide] | 1000 to 10000 nM
C[C@@H]1CN(c2nc(C3CCCCC3)c3c(c2C#N)CCOC3)CCN1S(C)(=O)=O [Compound 336, (R)-8-cyclohexyl-6-(3-methyl-4-(methylsulfonyl)piperazin-1-yl)-3,4-dihydro-1H-pyrano[3,4-c]pyridine-5-carbonitrile] | 1000 to 10000 nM
C[C@@H]1CN(c2nc(C3CCCCC3)c3c(c2C#N)CCOC3)CCN1C(=O)CCl [Compound 340, (R)-6-(4-(2-chloroacetyl)-3-methylpiperazin-1-yl)-8-cyclohexyl-3,4-dihydro-1H-pyrano[3,4-c]pyridine-5-carbonitrile] | < 500 nM
COCC(=O)N1CCN(c2nc(C3CCCCC3)c3c(c2C#N)CCOC3)C[C@H]1C [Compound 341] | 1000 to 10000 nM
COC(=O)CN1CCN(c2nc(C3CCCCC3)c3c(c2C#N)CCOC3)C[C@H]1C [Compound 342, (R)-methyl 2-(4-(5-cyano-8-cyclohexyl-3,4-dihydro-1H-pyrano[3,4-c]pyridin-6-yl)-2-methylpiperazin-1-yl)acetate] | 1000 to 10000 nM
C[C@@H]1CN(c2nc(C3CCCCC3)c3c(c2C#N)CCOC3)CCN1C(=O)OCc1ccccc1 [Compound 343, (R)-benzyl 4-(5-cyano-8-cyclohexyl-3,4-dihydro-1H-pyrano[3,4-c]pyridin-6-yl)-2-methylpiperazine-1-carboxylate] | 1000 to 10000 nM
CNC(=O)N1CCN(c2nc(C3CCCCC3)c3c(c2C#N)CCOC3)C[C@H]1C [Compound 357, (R)-4-(5-cyano-8-cyclohexyl-3,4-dihydro-1H-pyrano[3,4-c]pyridin-6-yl)-N,2-dimethylpiperazine-1-carboxamide] | 1000 to 10000 nM
CCOC(=O)N1CCN(c2nc(C3CCCCC3)c3c(c2C#N)CCOC3)C[C@H]1C [Compound 358, (R)-ethyl 4-(5-cyano-8-cyclohexyl-3,4-dihydro-1H-pyrano[3,4-c]pyridin-6-yl)-2-methylpiperazine-1-carboxylate] | 1000 to 10000 nM
CCCOC(=O)N1CCN(c2nc(C3CCCCC3)c3c(c2C#N)CCOC3)C[C@H]1C [Compound 359, (R)-propyl 4-(5-cyano-8-cyclohexyl-3,4-dihydro-1H-pyrano[3,4-c]pyridin-6-yl)-2-methylpiperazine-1-carboxylate] | 1000 to 10000 nM
C[C@@H]1CN(c2nc(C3CCCCC3)c3c(c2C#N)CCOC3)CCN1C(=O)NC1CC1 [Compound 360, (R)-4-(5-cyano-8-cyclohexyl-3,4-dihydro-1H-pyrano[3,4-c]pyridin-6-yl)-N-cyclopropyl-2-methylpiperazine-1-carboxamide] | 1000 to 10000 nM
C#CCNC(=O)N1CCN(c2nc(C3CCCCC3)c3c(c2C#N)CCOC3)C[C@H]1C [Compound 361, (R)-4-(5-cyano-8-cyclohexyl-3,4-dihydro-1H-pyrano[3,4-c]pyridin-6-yl)-2-methyl-N-(prop-2-ynyl)piperazine-1-carboxamide] | 1000 to 10000 nM
CC(=O)N1CCN(c2nc(C3CCCCC3)c3c(c2C#N)CCOC3)C[C@H]1C [Compound 362, (R)-6-(4-acetyl-3-methylpiperazin-1-yl)-8-cyclohexyl-3,4-dihydro-1H-pyrano[3,4-c]pyridine-5-carbonitrile] | 1000 to 10000 nM
CCC(=O)N1CCN(c2nc(C3CCCCC3)c3c(c2C#N)CCOC3)C[C@H]1C [Compound 363, (R)-8-cyclohexyl-6-(3-methyl-4-propionylpiperazin-1-yl)-3,4-dihydro-1H-pyrano[3,4-c]pyridine-5-carbonitrile] | 1000 to 10000 nM

The remaining lines, values ahead:

IC50 | Compound
500 to 1000 nM | CC(C)[C@@H]1CN(c2nc(C3CC3)c3c(c2C#N)CC(C)(C)OC3)CCN1C(=O)Cn1cccn1 [Compound 325, (R)-6-(4-(2-(1H-pyrazol-1-yl)acetyl)-3-isopropylpiperazin-1-yl)-8-cyclopropyl-3,3-dimethyl-3,4-dihydro-1H-pyrano[3,4-c]pyridine-5-carbonitrile]
1000 to 10000 nM | CCCCCNC(=O)N1CCN(c2nc(C3CC3)c3c(c2C#N)CC(C)(C)OC3)C[C@H]1C(C)C [Compound 327]
1000 to 10000 nM | CCOC(=O)C1CN(c2nc(C(C)C)c3c(c2C#N)CC(C)(C)OC3)CCN1C(=O)OCCOC (stereo not shown) [Compound 329, 2-ethyl 1-(2-methoxyethyl) 4-(5-cyano-8-isopropyl-3,3-dimethyl-3,4-dihydro-1H-pyrano[3,4-c]pyridin-6-yl)piperazine-1,2-dicarboxylate]
1000 to 10000 nM | CCOC(=O)C1CN(c2nc(C(C)C)c3c(c2C#N)CC(C)(C)OC3)CCN1C(=O)OC (stereo not shown) [Compound 333, 2-ethyl 1-methyl 4-(5-cyano-8-isopropyl-3,3-dimethyl-3,4-dihydro-1H-pyrano[3,4-c]pyridine-6-yl)piperazine-1,2-dicarboxylate]
1000 to 10000 nM | COc1ccc(OC(=O)N2CCN(c3nc(C4CC4)c4c(c3C#N)CC(C)(C)OC4)C[C@H]2C(C)C)cc1 [Compound 337, (R)-4-methoxyphenyl 4-(5-cyano-8-cyclopropyl-3,3-dimethyl-3,4-dihydro-1H-pyrano[3,4-c]pyridine-6-yl)-2-isopropylpiperazine-1-carboxylate]
1000 to 10000 nM | CON(C)CC(=O)N1CCN(c2nc(C3CC3)c3c(c2C#N)CC(C)(C)OC3)C[C@H]1C(C)C [Compound 338]
1000 to 10000 nM | CC(C)COC(=O)N1CCN(c2nc(C3CC3)c3c(c2C#N)CC(C)(C)OC3)C[C@H]1C(C)C [Compound 339, (R)-isobutyl 4-(5-cyano-8-cyclopropyl-3,3-dimethyl-3,4-dihydro-1H-pyrano[3,4-c]pyridin-6-yl)-2-isopropyl-piperazine-1-carboxylate]
< 500 nM | CNC(=O)N1CCN(c2nc(C3CC3)c3c(c2C#N)CC(C)(C)OC3)C[C@H]1C(C)C [Compound 344]
< 500 nM | COC(=O)N1CCN(c2nc(C3CC3)c3c(c2C#N)CC(C)(C)OC3)C[C@H]1C(C)C [Compound 346, (R)-methyl 4-(5-cyano-8-cyclopropyl-3,3-dimethyl-3,4-dihydro-1H-pyrano[3,4-c]pyridin-6-yl)-2-isopropylpiperazine-1-carboxylate]
< 500 nM | COCC(=O)N1CCN(c2nc(C3CC3)c3c(c2C#N)CC(C)(C)OC3)C[C@H]1C(C)C [Compound 347, (R)-8-cyclopropyl-6-(3-isopropyl-4-(2-methoxyacetyl)piperazin-1-yl)-3,3-dimethyl-3,4-dihydro-1H-pyrano[3,4-c]pyridine-5-carbonitrile]
1000 to 10000 nM | CC(C)[C@@H]1CN(c2nc(C3CC3)c3c(c2C#N)CC(C)(C)OC3)CCN1C(=O)COCCO [Compound 348]
1000 to 10000 nM | CCCNC(=O)N1CCN(c2nc(C3CC3)c3c(c2C#N)CC(C)(C)OC3)C[C@H]1C(C)C [Compound 350, (R)-4-(5-cyano-8-cyclopropyl-3,3-dimethyl-3,4-dihydro-1H-pyrano[3,4-c]pyridin-6-yl)-2-isopropyl-N-propylpiperazine-1-carboxamide]
1000 to 10000 nM | CC(C)[C@@H]1CN(c2nc(C3CC3)c3c(c2C#N)CC(C)(C)OC3)CCN1C(=O)N(C)C [Compound 351]
500 to 1000 nM | CC(=O)N1CCN(c2nc(C3CC3)c3c(c2C#N)CC(C)(C)OC3)C[C@H]1C(C)C [Compound 352]
500 to 1000 nM | COCCNC(=O)N1CCN(c2nc(C3CC3)c3c(c2C#N)CC(C)(C)OC3)C[C@H]1C(C)C [Compound 353]
< 500 nM | CCC(=O)N1CCN(c2nc(C3CC3)c3c(c2C#N)CC(C)(C)OC3)C[C@H]1C(C)C [Compound 354, (R)-8-cyclopropyl-6-(3-isopropyl-4-propionylpiperazin-1-yl)-3,3-dimethyl-3,4-dihydro-1H-pyrano[3,4-c]pyridine-5-carbonitrile]
1000 to 10000 nM | COCCC(=O)N1[C@H](C)CN(c2nc(C3CC3)c3c(c2C#N)CC(C)(C)OC3)C[C@@H]1C [Compound 356]
1000 to 10000 nM | CCCOC(=O)N1CCN(c2nc(C(C)C)c3c(c2C#N)CC(C)(C)OC3)CC1C(=O)OCC (stereo not shown) [Compound 364, 2-ethyl 1-propyl 4-(5-cyano-8-isopropyl-3,3-dimethyl-3,4-dihydro-1H-pyrano[3,4-c]pyridin-6-yl)piperazine-1,2-dicarboxylate]
1000 to 10000 nM | CC(C)[C@@H]1CN(c2nc(C3CC3)c3c(c2C#N)CC(C)(C)OC3)CCN1C(=O)NCC1CC1 [Compound 365]
1000 to 10000 nM | CCOC(=O)N1CCN(c2nc(C3CC3)c3c(c2C#N)CC(C)(C)OC3)C[C@H]1C(C)C [Compound 367]
